Data: patent publication US6358883B1, “Pesticidal and parasiticidal use of 1-aryl-1-(substituted thio, sulfinyl and sulfonyl)-2-nitroethane compounds” (American Cyanamid Company, priority 1998, dated 2002)

Tests used:
Type in all cases: in vivo
[1] = test system: M. incognita (Root Knot Nematode) larvae; test: Evaluation of test compounds against M. incognita larvae in microtiter plate wells (movement score); settings: larvae scored for movement after 20-24 hours; note: key: A score of '9' indicates inactive worms with a straight, sticklike morphology; A score of '8' indicates inactive worms with a limp, curled or curved morphology; A score of '7' indicates dead/paralyzed worms after 72 hours
Description: Evaluation of Test Compounds Against M. incognita (Root Knot Nematode)
Newly emerged M. incognita larvae are suspended in S Medium (buffered salt solution) to a concentration of 50-65 worms per 50 μl. 50 μl of the worm suspension are pipetted into microtiter plate wells containing the test compounds. The plates are then covered with plactic plate sealers to reduce loss of volume by evaporation. After 20-24 hours of incubation, the larvae are scored for movement. Wells containing obviously dead/paralyzed larvae are scored as positive. […] A score of “7” indicates dead/paralyzed worms after […].

[2] = test system: C. elegans (Bristol strain); test: Evaluation of test compounds against C. elegans (motility, 96-well plate); set-up: key: 9=complete kill in 4 hours; 8=complete kill in 24 hours; 7=markedly reduced motility in approximately 95% of worms in 24 hours; 0=normal motility, same as controls; settings: motility at 4 and 24 hours
Description: Evaluation of Test Compounds Against C. elegans Cultures of C. elegans (Bristol strain from J. Lewis) are maintained on E. coli lawns on NG Agar Plates at 20° C. New cultures are established weekly. Nematodes for testing are washed from cultures using Na buffer. Compounds are dissolved in 80% acetone. The test material is micropipetted (25 μl) into a single well of a 96-well sterile tissue culture plate and the solvent allowed to evaporate. A freshly prepared volume (50 μl) of C. elegans in Na buffer is micropipetted into each treated well and several control wells per plate. Plates are incubated at 20° C. Observations for efficacy are made under a dissecting microscope at 4 and 24 hours post-immersion. Immediately prior to reading the plate, it is gently tapped to stimulate the movement of the worms. Activity is judged subjectively, but semi-quantitatively, based on the drug effects on motility of the adults and larvae.

[3] = test system: Spodoptera eridania, 2nd instar larvae, southern armyworm (SAW); test: Southern armyworm (SAW) leaf dip test; set-up: key: 0 = no effect; 1 = 10-25% kill; 2 = 26-35% kill; 3 = 36-45% kill; 4 = 46-55% kill; 5 = 56-65% kill; 6 = 66-75% kill; 7 = 76-85% kill; 8 = 86-99% kill; 9 = 100% kill
Description: (§1) Test solutions are prepared by dissolving the test compound in a 35% acetone in water mixture to give a concentration of 10,000 ppm. Subsequent dilutions are made with water as needed.
Spodoptera eridania, 2nd Instar Larvae, Southern Armyworm (SAW)
A Sieva lima bean leaf expanded to 7-8 cm in length is dipped in the test solution with agitation for 3 seconds and allowed to dry in a hood. The leaf is then placed in a 100×10 mm petri dish containing a damp filter paper on the bottom and ten 2nd instar caterpillars. At 5 days, observations are made of mortality, reduced feeding, or any interference with normal molting.

[4] = test system: Diabrotica virgifera virgifera Leconte, 2nd instar western corn rootworm (WCR); test: Western corn rootworm (WCR) soil test; set-up: key: 0 = no effect; 1 = 10-25% kill; 2 = 26-35% kill; 3 = 36-45% kill; 4 = 46-55% kill; 5 = 56-65% kill; 6 = 66-75% kill; 7 = 76-85% kill; 8 = 86-99% kill; 9 = 100% kill
Description: Test solutions are prepared by dissolving the test compound in a 35% acetone in water mixture to give a concentration of 10,000 ppm. Subsequent dilutions are made with water as needed. Diabrotica virgifera virgifera Leconte, 2nd Instar Western Corn Rootworm (WCR) One cc of fine talc is placed in a 30 mL wide-mouth screw-top glass jar. One mL of the appropriate acetone test solution is pipetted onto the talc so as to provide 1.25 mg of active ingredient per jar. The jars are set under a gentle air flow until the acetone is evaporated. The dried talc is loosened, 1 cc of millet seed is added to serve as food for the insects and 25 mL of moist soil is added to each jar. The jar is capped and the contents thoroughly mixed mechanically. Following this, ten 2nd instar rootworms are added to each jar and the jars are loosely capped to allow air exchange for the larvae. The treatments are held for 5 days when mortality counts are made. Missing larvae are presumed dead, since they decompose rapidly and cannot be found. The concentrations of active ingredient used in this test correspond approximately to 50 kg/ha. [table]

[5] = test system: Tetranychus urticae (OP-resistant strain), 2-spotted spider mite (TSM); test: 2-spotted spider mite (TSM) plant dip test; set-up: key: 0 = no effect; 1 = 10-25% kill; 2 = 26-35% kill; 3 = 36-45% kill; 4 = 46-55% kill; 5 = 56-65% kill; 6 = 66-75% kill; 7 = 76-85% kill; 8 = 86-99% kill; 9 = 100% kill; settings: mortality after 2 days
Description: as §1
Tetranychus urticae (OP-resistant strain), 2-spotted Spider Mite (TSM)
Sieva lima bean plants with primary leaves expanded to 7-8 cm are selected and cut back to one plant per pot. A small piece is cut from an infested leaf taken from the main colony and placed on each leaf of the test plants. This is done about 2 hours before treatment to allow the mites to move over to the test plant to lay eggs. The size of the cut, infested leaf is varied to obtain about 100 mites per leaf. At the time of test treatment, the piece of leaf used to transfer the mites is removed and discarded. The newly-infested plants are dipped in the test solution for 3 seconds with agitation and set in the hood to dry. After 2 days, one leaf is removed and mortality counts are made.

[6] = test system: Aphis gossypii, cotton aphid (CA); test: Cotton aphid (CA) cotyledon dip test; set-up: key: 0 = no effect; 1 = 10-25% kill; 2 = 26-35% kill; 3 = 36-45% kill; 4 = 46-55% kill; 5 = 56-65% kill; 6 = 66-75% kill; 7 = 76-85% kill; 8 = 86-99% kill; 9 = 100% kill; settings: mortality after 5 days
Description: Test solutions are prepared by dissolving the test compound in a 35% acetone in water mixture to give a concentration of 10,000 ppm. Subsequent dilutions are made with water as needed. Aphis gossypii, Cotton Aphid (CA) Cotton plants at the cotyledon stage are selected and cut back to one plant per pot. A heavily infested leaf is taken from the main colony and placed on top of each cotyledon. The aphids are allowed to transfer to the host plant overnight. At the time of test treatment, the leaf used to transfer the aphids is removed and discarded. The cotyledons are dipped in the test solution and allowed to dry. After 5 days, mortality counts are made. [table]

[7] = test system: Diabrotica undecimpunctata howardi, eggs-southern corn rootworm (SCR-Eggs); test: Southern corn rootworm eggs (SCR-Eggs) treated diet test; set-up: key: 0 = no effect; 1 = 10-25% kill; 2 = 26-35% kill; 3 = 36-45% kill; 4 = 46-55% kill; 5 = 56-65% kill; 6 = 66-75% kill; 7 = 76-85% kill; 8 = 86-99% kill; 9 = 100% kill; settings: mortality after 7 days
Description: Test solutions are prepared by dissolving the test compound in a 35% acetone in water mixture to give a concentration of 10,000 ppm. Subsequent dilutions are made with water as needed. Spodoptera eridania, Eggs-southern Armyworm and Diabrotica undecimpunctata howardi, Eggs-southern Corn Rootworm (SAW-Eggs) and (SCR-Eggs) Wells containing artificial diet are treated with the test solutions and dried. The appropriate insect eggs are then placed in the wells. The wells are covered with vented, adhesive, clear plastic covers. After 7 days, mortality counts are made. [table]

| Structure (SMILES) | M. incognita (150 ppm) score [1] | Rating Against C. elegans (150 ppm) [2] | SAW (300 ppm) rating [3] | WCR (50 ppm) rating [4] | TSM (300 ppm) rating [5] | CA (300 ppm) rating [6] | SCR Eggs (1000 ppm) rating [7] |
| --- | --- | --- | --- | --- | --- | --- | --- |
| CCCSC(C[N+](=O)[O-])c1ccccc1Cl (racemic) [Example 94] | 0 | 0 | 0 | 0 | 0 | 0 | 0 |
| C=CCSC(C[N+](=O)[O-])c1ccccc1Cl (racemic) [Example 95] | 0 | 0 | 0 | 4 (4 = 46-55% kill) | 0 | 0 | 0 |
| O=C(O)CSC(C[N+](=O)[O-])c1ccccc1Cl (racemic) [Example 96] | 9 | 9 | 0 | 0 | 0 | 0 | 0 |
| CC(C)c1ccc(C(C[N+](=O)[O-])SCc2ccccc2)cc1 (stereo not drawn) [Example 36] | 0 | 0 | 1 (1 = 10-25% kill) | 0 | 0 | 0 | 7 (7 = 76-85% kill) |
| CCCSC(C[N+](=O)[O-])c1ccc(C(C)C)cc1 (stereo not drawn) [Example 37] | 0 | 0 | 0 | 0 | 0 | 0 | 0 |
| C=CCSC(C[N+](=O)[O-])c1ccc(C(C)C)cc1 (stereo not drawn) [Example 38] | 0 | 0 | 0 | 0 | 0 | 0 | 9 (9 = 100% kill) |
| COC(=O)CSC(C[N+](=O)[O-])c1ccccc1F (stereo not drawn) [Example 39] | 9 | 9 | 4 (4 = 46-55% kill) | 8 (8 = 86-99% kill) | 0 | 0 | 0 |
| CCOC(=O)CSC(C[N+](=O)[O-])c1ccccc1F (stereo not drawn) [Example 40] | 9 | 8 | 3 (3 = 36-45% kill) | 9 (9 = 100% kill) | 0 | 0 | 0 |
| CCCCOC(=O)CSC(C[N+](=O)[O-])c1ccccc1F (stereo not drawn) [Example 41] | 9 | 7 | 1 (1 = 10-25% kill) | 9 (9 = 100% kill) | 0 | 0 | 0 |
